Target: T1, MAGE-A11:PCF11 interaction (GST-MAGE-A11 and FAM-PCF11_4) (Homo sapiens, UniProt P43364)
T1 construct: GST-MAGE-A11 MHD (human MAGE-A11 MHD amino acid 218-429); made in house; host or cells: E. coli BL21(DE3)
T1 sequence (P43364 218-429): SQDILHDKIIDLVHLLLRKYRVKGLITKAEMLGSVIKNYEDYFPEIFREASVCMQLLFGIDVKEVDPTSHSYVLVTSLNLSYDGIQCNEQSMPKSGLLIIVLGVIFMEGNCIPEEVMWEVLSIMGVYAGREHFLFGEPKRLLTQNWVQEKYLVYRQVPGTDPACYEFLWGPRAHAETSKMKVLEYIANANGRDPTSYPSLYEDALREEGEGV
Experiment: TR-FRET primary / single point screen at 15 µM
Type: binding
Conditions: single point TR-FRET screening of 797 quinoline compounds against MAGE-A11:PCF11
Summary of the method: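 Single-point screen at 15 µM final compound in 50 mM Tris pH 7.5, 20 mM MgCl2, 0.1 mg/ml BSA, 1 mM DTT, with 200 nM FAM-PCF11_4, 5 nM Tb-anti-GST and 5 nM GST-MAGE-A11. After 90 min at room temperature, the 520/490 nm TR-FRET ratio (340 nm excitation) gave %Inhibition against no-MAGE-A11 and DMSO controls.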

Row | Compound | percent inhibition (TR-FRET)
1 | Cc1ccc2ncc(S(=O)(=O)c3ccccc3)c(N3CCN(c4ccccc4F)CC3)c2c1 [SJ000315092] | -33.4837
2 | COc1ccc2nc3cc(Cl)ccc3c(NCCCNCC3CC3)c2c1 [SJ000361087] | -502.358
3 | COc1ccc(CNCCCNc2c3ccc(Cl)cc3nc3ccc(OC)cc23)cc1 [SJ000523033] | -338.862
4 | CCOC(=O)c1cnc2c(Cl)cccc2c1NCCN1CCOCC1 [SJ000163436] | -6.529
5 | CCC(CC)CN1CCC(Nc2ccnc3cc(Cl)ccc23)CC1 [SJ000523086] | 9.754
6 | CCOc1ccc2ncc(S(=O)(=O)c3ccc(C)c(C)c3)c(N3CCN(C)CC3)c2c1 [SJ000247354] | -14.0527
7 | CCCN(CCCNc1c2ccc(Cl)cc2nc2ccc(OC)cc12)Cc1cc(OC)ccc1O [SJ000520933] | -150.831
8 | CCCN(CCCNc1c2ccc(Cl)cc2nc2ccc(OC)cc12)Cc1ccc2c(c1)OCO2 [SJ000520940] | -193.541
9 | CCOC(=O)c1cnc2ccc(C)cc2c1NCCN1CCOCC1 [SJ000027268] | -0.3915
10 | O=C(CN1CCN(C(c2ccccc2)c2ccccc2)CC1)Nc1c2c(nc3ccccc13)CCC2 [SJ000111684] | 11.85
11 | CCOC(=O)c1cnc2c(C)cc(Cl)cc2c1NCCN(C)C [SJ000027210] | 3.834
12 | Cc1cc(NC(=O)CN2CCN(C)CC2)c2ccccc2n1 [SJ000111680] | 4.6472
13 | COc1ccc2nc3cc(Cl)ccc3c(NCCCNCc3cc(OC(F)(F)F)ccc3OC)c2c1 [SJ000521001] | -231.84
14 | CCCCCN(CCCCC)CC(=O)Nc1c2c(nc3ccccc13)CCC2 [SJ000487033] | -68.0728
15 | O=[N+]([O-])c1ccc(CN2CCC(Nc3ccnc4cc(Cl)ccc34)CC2)cc1 [SJ000523096] | -4.954
16 | COc1cccc(CN2CCC(Nc3ccnc4cc(Cl)ccc34)CC2)c1 [SJ000523107] | 3.1492
17 | Cc1ccc2ncc(S(=O)(=O)c3ccccc3)c(N3CCN(Cc4ccccc4)CC3)c2c1 [SJ000247256] | 2.673
18 | CCc1nc2ccccc2c(NC(=O)CNC(C)(C)CC(C)(C)C)c1C [SJ000049110] | -0.6045
19 | CCCN(CCCNc1c2ccc(Cl)cc2nc2ccc(OC)cc12)CC1CC1 [SJ000520936] | -271.356
20 | CCCN(CCCNc1c2ccc(Cl)cc2nc2ccc(OC)cc12)CCC(C)(C)C [SJ000522983] | -233.73
21 | CCCN(CCCNc1c2ccc(Cl)cc2nc2ccc(OC)cc12)Cc1cccc2c1OCO2 [SJ000522979] | -107.991
22 | CCOc1ccc2ncc(S(=O)(=O)c3ccccc3)c(N3CCN(Cc4ccccc4)CC3)c2c1 [SJ000247249] | -15.9076
23 | CCc1ccc(S(=O)(=O)c2cnc3ccccc3c2N2CCN(Cc3ccccc3)CC2)cc1 [SJ000117086] | -55.2584
24 | O=S(=O)(c1ccc(F)cc1)N1CCN(c2ccnc3cc(Cl)ccc23)CC1 [SJ000203833] | -50.6426
25 | COc1ccc2nc3cc(Cl)ccc3c(NCCCNCc3ccc(C)s3)c2c1 [SJ000523029] | -304.796
26 | CCCN(CCCCNc1ccnc2cc(Cl)ccc12)CCCSC [SJ000311197] | 3.903
27 | Cc1ccc2ncc(S(=O)(=O)c3ccccc3)c(N3CCN(C)CC3)c2c1 [SJ000083945] | -8.419
28 | Cc1ccc(S(=O)(=O)c2cnc3ccccc3c2N2CCN(C)CC2)cc1 [SJ000247268] | -13.5889
29 | CCc1ccc2ncc(S(=O)(=O)c3ccccc3)c(N3CCN(C)CC3)c2c1 [SJ000083946] | -6.249

The next lines start with the values.

Row | percent inhibition (TR-FRET) | Compound
30 | 6.554 | Clc1ccc2c(NC3CCN(Cc4ccccc4)CC3)ccnc2c1 [SJ000357524]
31 | 24.8344 | Oc1ccccc1CN(CCCCNc1ccnc2cc(Cl)ccc12)Cc1ccccc1 [SJ000312697]
32 | 69.4381 | Clc1ccc2c(NCCCCN(Cc3ccccc3)Cc3ccc4[nH]ccc4c3)ccnc2c1 [SJ000520434]
33 | 33.9765 | Clc1ccc2c(NCCCCN(Cc3ccccc3)Cc3csc4ccccc34)ccnc2c1 [SJ000520446]
34 | -0.9977 | CCCN(CCCCNc1ccnc2cc(Cl)ccc12)Cc1ccc[nH]1 [SJ000311198]
35 | 30.8594 | FC(F)(F)Oc1ccccc1CN(CCCCNc1ccnc2cc(Cl)ccc12)Cc1ccccc1 [SJ000520459]
36 | 29.5379 | Cc1cccc(CN(CCCCNc2ccnc3cc(Cl)ccc23)Cc2ccccc2)c1 [SJ000361206]
37 | -432.435 | COc1ccc2nc3cc(Cl)ccc3c(NCCCNCc3ccccc3)c2c1 [SJ000361086]
38 | 11.7175 | COc1cccc(CN(CCCCNc2ccnc3cc(Cl)ccc23)Cc2ccccc2)c1 [SJ000361210]
39 | 16.2962 | Clc1ccc2c(NCCCCN(Cc3ccccc3)Cc3ccsc3)ccnc2c1 [SJ000312689]
40 | 25.0481 | Clc1ccc2c(NCCCCN(Cc3ccccc3)Cc3cccs3)ccnc2c1 [SJ000312686]

Same assay, conditions: single point TR-FRET screening of quinoline compounds against MAGE-A11:PCF11; 15 µM

Row | Compound | percent inhibition (TR-FRET)
41 | CCOC(=O)c1cnc2ccc(F)cc2c1NCCCN1CCOCC1 [SJ000279864] | -0.3915
42 | CCCN(CCCCCC(=O)OC)CCCNc1ccnc2cc(Cl)ccc12 [SJ000523017] | 14.3011
43 | CC(C)(C)CCNCCCNc1ccnc2cc(C(F)(F)F)ccc12 [SJ000521053] | 27.3587
44 | Clc1cccc(Cl)c1Cc1ccc2c(NCCCNCc3ccco3)ccnc2c1 [SJ000311314] | 32.3998
45 | CSC(C)CCNCCCNc1ccnc2cc(Cl)ccc12 (stereo not shown) [SJ000361121] | 13.499
46 | CCCCCN(CCC)CCCNc1ccnc2cc(C(F)(F)F)ccc12 [SJ000361271] | 30.9303
47 | Clc1ccc2c(NCCCNCC3CCOC3)ccnc2c1 (stereo not shown) [SJ000521038] | 0.4026
48 | CC(C)Cc1ccc2c(NCCCNCc3ccco3)ccnc2c1 [SJ000311258] | 8.8745
49 | CCCN(CCCNc1ccnc2cc(C(F)(F)F)ccc12)Cc1ccco1 [SJ000361265] | 24.1057
50 | FC(F)(F)c1ccc(-c2ccc3c(NCCCNCc4ccco4)ccnc3c2)cc1 [SJ000311278] | 56.2051
51 | CCCCNCCCNc1ccnc2cc(Cl)ccc12 [SJ000521027] | 8.4544
52 | c1coc(CNCCCNc2ccnc3cc(CC4CCCCC4)ccc23)c1 [SJ000311250] | 40.6616
53 | CCCN(CCCNc1ccnc2cc(C(F)(F)F)ccc12)Cc1cc(OC)ccc1O [SJ000361263] | 25.2582
54 | CCCN(CCCNc1ccnc2cc(C(F)(F)F)ccc12)Cc1ncc[nH]1 [SJ000575181] | 9.345
55 | CCOC(=O)c1cnc2ccc(OCC)cc2c1NCCCN1CCOCC1 [SJ000279525] | 5.532
56 | CCCN(CCCCCC(=O)OC)CCCNc1ccnc2cc(C(F)(F)F)ccc12 [SJ000575191] | 5.6

The remaining lines, values ahead:

Row | percent inhibition (TR-FRET) | Compound
57 | 23.7127 | CCCN(CCCNc1ccnc2cc(C(F)(F)F)ccc12)Cc1ccc(N(C)C)cc1 [SJ000523077]
58 | 30.3991 | CCCN(CCCNc1ccnc2cc(Cl)ccc12)Cc1cc(C(F)(F)F)ccc1OC [SJ000523012]
59 | 29.7727 | Cc1ccc(F)cc1CN(CCCNc1ccnc2cc(Cl)ccc12)Cc1ccccc1 [SJ000520458]
60 | 10.905 | Cc1ccsc1CN(CCCNc1ccnc2cc(Cl)ccc12)Cc1ccccc1 [SJ000357440]
61 | 17.0835 | CCCN(CCCNc1ccnc2cc(Cl)ccc12)Cc1cc(F)ccc1OC [SJ000357494]
62 | 24.9781 | CCCN(CCCNc1ccnc2cc(Cl)ccc12)CCC(C)c1ccccc1 (stereo not shown) [SJ000357573]
63 | 27.418 | CCCN(CCCNc1ccnc2cc(Cl)ccc12)Cc1cccc(F)c1 [SJ000522758]
64 | 6.351 | CCCN(CCCNc1ccnc2cc(Cl)ccc12)Cc1nccn1C [SJ000523002]
65 | 11.9552 | CCCN(CCCNc1ccnc2cc(Cl)ccc12)Cc1nccs1 [SJ000357454]
66 | 25.0481 | FC(F)(F)Oc1ccc(CN(CCCNc2ccnc3cc(Cl)ccc23)Cc2ccccc2)cc1 [SJ000520460]
67 | 7.404 | CCCN(CCCNc1ccnc2cc(C(F)(F)F)ccc12)Cc1nc2ccccc2s1 [SJ000520484]
68 | 20.7933 | CCCN(CCCNc1ccnc2cc(Cl)ccc12)Cc1ccc(F)cc1 [SJ000522759]
69 | 19.3068 | CCCCN(CCCNc1ccnc2cc(Cl)ccc12)Cc1ccccc1 [SJ000357579]
70 | 4.43 | COc1ccccc1CN(CCCNc1ccnc2cc(Cl)ccc12)Cc1ccccc1 [SJ000522722]
71 | 16.1561 | CCCN(CCCNc1ccnc2cc(C(F)(F)F)ccc12)Cc1c[nH]c2ccccc12 [SJ000520468]
72 | 19.1371 | CCCN(CCCNc1ccnc2cc(Cl)ccc12)Cc1ccc(OC)cc1 [SJ000522756]
73 | 27.8488 | CCCN(CCCNc1ccnc2cc(C(F)(F)F)ccc12)Cc1cccc(F)c1 [SJ000521008]

— publication PMC7529893, “Structural basis for substrate recognition and chemical inhibition of oncogenic MAGE ubiquitin ligases” (Nature Communications, 2020)
